pEC50: −log10 of the molar value.
Columns and labels:
ABCA1 mRNA = ABCA1 mRNA - HepG2 (qRT-PCR); assay type: cell-based, human; conditions: Homo sapiens; ABCA1 mRNA-HepG2 assay (Table 7)
Text: qRT-PCR. For cell samples, treated cells were lysed with RLT plus lysis buffer (Qiagen). RNA was isolated with Qiagen RNEASY® Plus columns per manufacturer instructions, then reverse-transcribed to cDNA using […]® III Reverse Transcriptase (200 U/μL, Invitrogen) per supplier protocol. qPCR experiments were either performed with TAQMAN® gene expression master mix (Invitrogen) on a StepOne™ qPCR instrument or with […]® SYBR® Green SuperMix (Quanta Biosciences) on CFX Connect™ Real-Time PCR Detection System (BioRad), with fold-change quantified by ΔΔCt. For animal samples, 100 mg tissue was homogenized in 1 mL acid-guanidinium-phenol based reagent sold under the tradename TRIZOL® (Ambion), mixed vigorously in chloroform, and separated by centrifugation. Aqueous layer containing RNA was added to Qiagen RNEASY® Plus column; remaining stops were as described above for cell lysates.

ABCA1 = ABCA1 firefly reporter assay in CCF-001 cells; assay type: cell-based; conditions: ABCA1 firefly reporter assay in CCF-001 cells (Table 8)

SMILES	pEC50 (ABCA1 mRNA)	pEC50 (ABCA1)
CCOc1ccc(N(C)S(=O)(=O)c2ccsc2C(=O)Nc2cccc(C(=O)CC)c2)cc1 [CL1-62, 3-(N-(4-ethoxyphenyl)-N-methylsulfamoyl)-N-(3-propionylphenyl)thiophene-2-carboxamide]	< 5.30	
CCOc1ccc(N(C)S(=O)(=O)c2ccsc2C(=O)Nc2cccc(C(=O)OC)c2)cc1 [CL1-87, Methyl 3-(3-(N-(4-ethoxyphenyl)-N-methylsulfamoyl)thiophene-2-carboxamido) benzoate]	< 5.30	5.40
CCOc1ccc(N(C)S(=O)(=O)c2ccsc2C(=O)Nc2cccc(C(=O)OC(C)C)c2)cc1 [CL1-88, Isopropyl 3-(3-(N-(4-ethoxyphenyl)-N-methylsulfamoyl)thiophene-2-carboxamido) benzoate]	5.35	
CCOC(=O)c1cccc(NC(=O)c2sccc2S(=O)(=O)N(C)c2cccc(OCC)c2)c1 [CL2-1, Ethyl 3-(3-(N-(3-ethoxyphenyl)-N-methylsulfamoyl)thiophene-2-carboxamido)benzoate]	< 5.30	5.33
CCCOc1ccc(N(C)S(=O)(=O)c2ccsc2C(=O)Nc2cccc(C(=O)OCC)c2)cc1 [CL2-16, Ethyl 3-(3-(N-methyl-N-(4-propoxyphenyl)sulfamoyl)thiophene-2-carboxamido) benzoate]	5.46	5.63
CCOC(=O)c1cccc(NC(=O)c2sccc2S(=O)(=O)N(C)c2ccc(OCC)c(OCC)c2)c1 [CL2-43, Ethyl 3-(3-(N-(3,4-diethoxyphenyl)-N-methylsulfamoyl)thiophene-2-carboxamido)benzoate]	5.55	
CCOC(=O)c1cccc(NC(=O)c2sc(Cl)cc2S(=O)(=O)N(C)c2ccc(OCC)cc2F)c1 [CL2-143, Ethyl 3-(5-chloro-3-(N-(4-ethoxy-2-fluorophenyl)-N-methylsulfamoyl)thiophene-2-carboxamido)benzoate]	5.46	5.79
CCOC(=O)c1cccc(NC(=O)c2sc(Cl)cc2S(=O)(=O)N(C)c2ccc(N3CCNCC3)cc2)c1 [CL2-200, Ethyl 3-(5-chloro-3-(N-methyl-N-(4-(piperazin-1-yl)phenyl)sulfamoyl)thiophene-2-carboxamido)benzoate]	5.43	
CCOC(=O)c1cccc(-c2nnc(-c3sc(Cl)cc3S(=O)(=O)N(C)c3ccc(OCC)c(OC)c3)o2)c1 [GR1-015, Ethyl 3-(5-(5-chloro-3-(N-(4-ethoxy-3-methoxyphenyl)-N-methylsulfamoyl)thiophen-2-yl)-1,3,4-oxadiazol-2-yl)benzoate]		5.51
C#CCOc1ccc(C(=O)c2ccc(OC(=O)c3cc(Cl)cc(NC(=O)c4sc(Cl)cc4S(=O)(=O)N(C)c4ccc(OCC)c(OC)c4)c3)cc2)cc1 [GR1-019, 4-(4-(Prop-2-yn-1-yloxy)benzoyl)phenyl 3-chloro-5-(5-chloro-3-(N-(4-ethoxy-3-methoxyphenyl)-N-methylsulfamoyl)thiophene-2-carboxamido)benzoate]		7.18
CCOc1ccc(N(C)S(=O)(=O)c2cc(Cl)sc2C(=O)Nc2cc(Cl)cc(C(=O)Oc3ccc(C(=O)c4ccccc4)cc3)c2)cc1OC [GR1-068, 4-Benzoylphenyl 3-chloro-5-(5-chloro-3-(N-(4-ethoxy-3-methoxyphenyl)-N-methylsulfamoyl)thiophene-2-carboxamido)benzoate]		6.83
CCOc1ccc(N(C)S(=O)(=O)c2cc(Cl)sc2C(=O)Nc2cc(Cl)cc(C(=O)Oc3ccc(C(=O)c4ccc(O)cc4)cc3)c2)cc1OC [GR1-069, 4-(4-Hydroxybenzoyl)phenyl 3-chloro-5-(5-chloro-3-(N-(4-ethoxy-3-methoxyphenyl)-N-methylsulfamoyl)thiophene-2-carboxamido)benzoate]		6.68
O=C(O)Cc1cccc(OCCCN(Cc2cccc(C(F)(F)F)c2Cl)CC(c2ccccc2)c2ccccc2)c1 [GW3965, reference compound]		6.57

Further lines, results first:

pEC50 (ABCA1 mRNA)	pEC50 (ABCA1)	SMILES
5.32	4.90	CCOc1ccc(N(C)S(=O)(=O)c2cc(Cl)sc2C(=O)Nc2cccc(S(C)(=O)=O)c2)cc1OCC [CL2-63, 5-Chloro-3-(N-(3,4-diethoxyphenyl)-N-methylsulfamoyl)-N-(3-(methylsulfonyl)phenyl)thiophene-2-carboxamide]
< 5.30		CCOc1ccc(N(C)S(=O)(=O)c2cc(Cl)sc2C(=O)Nc2cccc(C(=O)CC)c2)cc1OCC [CL2-64, 5-Chloro-3-(N-(3,4-diethoxyphenyl)-N-methylsulfamoyl)-N-(3-propionylphenyl)thiophene-2-carboxamide]
5.96	6.72	CCOC(=O)c1cccc(NC(=O)c2sc(Cl)cc2S(=O)(=O)N(C)c2ccc(OCC)c(OC)c2)c1 [CL2-85, Ethyl 3-(5-chloro-3-(N-(4-ethoxy-3-methoxyphenyl)-N-methylsulfamoyl)thiophene-2-carboxamido)benzoate]
< 5.30	5.27	CCOC(=O)c1cccc(NC(=O)c2sc(Cl)cc2S(=O)(=O)N(C)c2ccc(OCC)nc2)c1 [CL2-159, Ethyl 3-(5-chloro-3-(N-(6-ethoxypyxidin-3-yl)-N-methylsulfamoyl)thiophene-2-carboxamido)benzoate]
< 5.30		CCOC(=O)c1cccc(NC(=O)c2sc(Cl)cc2S(=O)(=O)N(C)c2ccc(OCC)c(OCC)c2)n1 [CL3-2, Ethyl 6-(5-chloro-3-(N-(3,4-diethoxyphenyl)-N-methylsulfamoyl)thiophene-2-carboxamido)picolinate]
	6.09	CCOc1ccc(N(C)S(=O)(=O)c2cc(Cl)sc2C(=O)Nc2cc(Cl)ccc2F)cc1OC [GR1-001, 5-Chloro-N-(5-chloro-2-fluorophenyl)-3-(N-(4-ethoxy-3-methoxyphenyl)-N-methylsulfamoyl)thiophene-2-carboxamide]
	5.69	CCOc1ccc(N(C)S(=O)(=O)c2cc(Cl)sc2C(=O)Nc2cc(C(F)(F)F)cc(C(F)(F)F)c2)cc1OC [GR1-002, N-(3,5-bis (trifluoromethyl)phenyl)-5-chloro-3-(N-(4-ethoxy-3-methoxyphenyl)-N-methylsulfamoyl)thiophene-2-carboxamide]
	5.57	CCOc1ccc(N(C)S(=O)(=O)c2cc(Cl)sc2C(=O)Nc2cccc(Cl)c2)cc1OC [GR1-046, 5-Chloro-N-(3-chlorophenyl)-3-(N-(4-ethoxy-3-methoxyphenyl)-N-methylsulfamoyl)thiophene-2-carboxamide]
	5.60	CCOc1ccc(N(C)S(=O)(=O)c2cc(Cl)sc2C(=O)Nc2cccc(F)c2)cc1OC [GR1-047, 5-Chloro-3-(N-(4-ethoxy-3-methoxyphenyl)-N-methylsulfamoyl)-N-(3-fluorophenyl)thiophene-2-carboxamide]
	5.91	CCOc1ccc(N(C)S(=O)(=O)c2cc(Cl)sc2C(=O)Nc2cccc(Br)c2)cc1OC [GR1-048, N-(3-bromophenyl)-5-chloro-3-(N-(4-ethoxy-3-methoxyphenyl)-N-methylsulfamoyl)thiophene-2-carboxamide]
	6.10	CCOc1ccc(N(C)S(=O)(=O)c2cc(Cl)sc2C(=O)Nc2cc(Cl)cc(Cl)c2)cc1OC [GR1-049, 5-Chloro-N-(3,5-dichlorophenyl)-3-(N-(4-ethoxy-3-methoxyphenyl)-N-methylsulfamoyl)thiophene-2-carboxamide]
	5.96	CCOc1ccc(N(C)S(=O)(=O)c2cc(Cl)sc2C(=O)Nc2cc(F)cc(Cl)c2)cc1OC [GR1-050, 5-Chloro-N-(3-chloro-5-fluorophenyl)-3-(N-(4-ethoxy-3-methoxyphenyl)-N-methylsulfamoyl)thiophene-2-carboxamide]
	5.44	CCOc1ccc(N(C)S(=O)(=O)c2cc(Cl)sc2C(=O)Nc2cc(Cl)cc(Br)c2)cc1OC [GR1-051, N-(3-bromo-5-chlorophenyl)-5-chloro-3-(N-(4-ethoxy-3-methoxyphenyl)-N-methylsulfamoyl)thiophene-2-carboxamide]
	5.81	CCOc1ccc(N(C)S(=O)(=O)c2cc(Cl)sc2C(=O)Nc2cc(Cl)cc(C(F)(F)F)c2)cc1OC [GR1-052, 5-Chloro-N-(3-chloro-5-(trifluoromethyl)phenyl)-3-(N-(4-ethoxy-3-methoxyphenyl)-N-methylsulfamoyl)thiophene-2-carboxamide]
	6.25	CCOC(=O)c1cc(Br)cc(NC(=O)c2sc(Cl)cc2S(=O)(=O)N(C)c2ccc(OCC)c(OC)c2)c1 [GR1-054, Ethyl 3-bromo-5-(5-chloro-3-(N-(4-ethoxy-3-methoxyphenyl)-N-methylsulfamoyl)thiophene-2-carboxamido)benzoate]
	6.87	CCOc1ccc(N(C)S(=O)(=O)c2cc(Cl)sc2C(=O)Nc2cc(Cl)cc(C(=O)Oc3ccccc3)c2)cc1OC [GR1-059, Phenyl 3-chloro-5-(5-chloro-3-(N-(4-ethoxy-3-methoxyphenyl)-N-methylsulfamoyl)thiophene-2-carboxamido)benzoate]
	6.24	CCOc1ccc(N(C)S(=O)(=O)c2cc(Cl)sc2C(=O)Nc2cc(Cl)cc([N+](=O)[O-])c2)cc1OC [GR1-064, 5-Chloro-N-(3-chloro-5-nitrophenyl)-3-(N-(4-ethoxy-3-methoxyphenyl)-N-methylsulfamoyl)thiophene-2-carboxamide]
	7.96	CCOc1ccc(N(C)S(=O)(=O)c2cc(Cl)sc2C(=O)Nc2cc(Cl)cc(C(=O)Oc3ccc(C(C)=O)cc3)c2)cc1OC [GR1-067, 4-Acetylphenyl 3-chloro-5-(5-chloro-3-(N-(4-ethoxy-3-methoxyphenyl)-N-methylsulfamoyl)thiophene-2-carboxamido)benzoate]
